In patent US20220273659A1, “HETEROCYCLIC COMPOUNDS AS KINASE INHIBITORS” (NUVATION BIO INC., priority 2019, published 2022) one finds IC50 data, which are given here for 13 molecules.

One experiment deals with T1, CDK6 (Homo sapiens, UniProt Q00534).
T1 construct: purchased Invitrogen PR8422B
As to the kind of experiment: In vitro kinase inhibition IC50, luminescence (ADP Glo), retinoblastoma substrate. Type of experiment: biochemical. The note with it: read-out: CDK6/D1 IC50. In outline:
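IC50 derived by four-parameter logistic fit of percent inhibition, read as ADP-Glo luminescence. Reactions: 5 nM CDK6, 1 μM retinoblastoma, 25 μM ATP, test compound 0.1–200 nM final, 2 h at room temperature.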
(ADP-Glo first removes unused ATP, then detects ADP through luciferase.)

Another experiment addresses T2, CDK4 (Homo sapiens, UniProt P11802).
T2 construct: purchased Invitrogen PR8064A
Described as above. Type of experiment: biochemical. Particulars: read-out: CDK4/D1 IC50. The essentials:
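Inhibition of CDK4 was quantified by ADP Glo luminescence with retinoblastoma as substrate. Reactions held 5 nM kinase, 1 μM retinoblastoma and 25 μM ATP and ran 2H at room temperature. A Synergy Neo reader took signals 15 min and 45 min after detection reagent, and percent inhibition was fitted to a four-parameter logistic model in XLfit to obtain IC50.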

The target in a further experiment is T3, PI3Kδ kinase (Homo sapiens, UniProt O00329).
T3 construct: purchased Reaction Biology Corporation (assay service)
T3 sequence (O00329 whole entry): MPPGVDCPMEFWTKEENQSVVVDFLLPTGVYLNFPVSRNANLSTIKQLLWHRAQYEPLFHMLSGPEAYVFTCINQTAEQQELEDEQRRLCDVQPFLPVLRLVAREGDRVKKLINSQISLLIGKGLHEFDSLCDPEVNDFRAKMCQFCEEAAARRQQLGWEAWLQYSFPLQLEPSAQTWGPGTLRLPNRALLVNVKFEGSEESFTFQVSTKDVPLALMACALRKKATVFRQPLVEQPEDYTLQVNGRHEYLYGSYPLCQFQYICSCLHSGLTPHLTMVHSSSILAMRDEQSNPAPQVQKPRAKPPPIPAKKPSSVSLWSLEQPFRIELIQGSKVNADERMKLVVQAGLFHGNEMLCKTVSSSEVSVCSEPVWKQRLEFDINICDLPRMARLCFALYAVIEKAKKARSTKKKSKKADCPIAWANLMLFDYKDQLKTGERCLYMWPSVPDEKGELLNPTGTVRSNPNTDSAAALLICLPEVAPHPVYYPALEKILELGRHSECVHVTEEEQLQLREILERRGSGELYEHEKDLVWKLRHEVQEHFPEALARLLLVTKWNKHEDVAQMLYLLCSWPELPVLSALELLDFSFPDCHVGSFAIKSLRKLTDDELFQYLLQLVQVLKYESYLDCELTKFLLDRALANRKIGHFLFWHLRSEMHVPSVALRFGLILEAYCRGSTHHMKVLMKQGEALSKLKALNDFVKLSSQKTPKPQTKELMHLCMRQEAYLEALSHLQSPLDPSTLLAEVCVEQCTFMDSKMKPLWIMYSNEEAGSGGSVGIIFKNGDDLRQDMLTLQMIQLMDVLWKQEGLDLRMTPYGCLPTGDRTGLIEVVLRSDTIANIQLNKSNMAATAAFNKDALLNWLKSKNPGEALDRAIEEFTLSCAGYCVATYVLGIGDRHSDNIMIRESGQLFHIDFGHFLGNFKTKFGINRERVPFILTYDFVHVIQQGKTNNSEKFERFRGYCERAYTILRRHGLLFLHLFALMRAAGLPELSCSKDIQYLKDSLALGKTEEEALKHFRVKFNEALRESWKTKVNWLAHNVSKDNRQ
T3 sequence (P27986 whole entry partner): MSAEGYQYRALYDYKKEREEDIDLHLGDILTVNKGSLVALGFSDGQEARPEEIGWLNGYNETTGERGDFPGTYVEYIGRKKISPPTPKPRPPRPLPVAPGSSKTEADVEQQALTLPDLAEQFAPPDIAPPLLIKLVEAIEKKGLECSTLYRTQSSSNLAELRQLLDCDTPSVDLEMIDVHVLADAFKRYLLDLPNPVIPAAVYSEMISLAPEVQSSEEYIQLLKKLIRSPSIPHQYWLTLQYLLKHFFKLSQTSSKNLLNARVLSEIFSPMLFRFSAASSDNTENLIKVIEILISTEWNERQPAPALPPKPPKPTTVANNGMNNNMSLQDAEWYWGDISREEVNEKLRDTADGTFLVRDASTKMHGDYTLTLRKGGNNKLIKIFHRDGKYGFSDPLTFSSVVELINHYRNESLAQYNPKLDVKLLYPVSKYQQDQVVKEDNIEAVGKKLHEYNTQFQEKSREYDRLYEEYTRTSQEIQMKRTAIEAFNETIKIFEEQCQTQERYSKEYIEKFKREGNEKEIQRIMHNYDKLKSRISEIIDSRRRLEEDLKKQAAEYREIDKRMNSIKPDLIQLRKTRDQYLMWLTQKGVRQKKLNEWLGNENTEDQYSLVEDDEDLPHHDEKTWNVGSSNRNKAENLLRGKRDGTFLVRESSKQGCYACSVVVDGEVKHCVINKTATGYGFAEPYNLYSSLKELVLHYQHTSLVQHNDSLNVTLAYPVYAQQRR
The experiment in a line: PI3Kδ kinase assay (ADP-Glo, Reaction Biology). Type of experiment: biochemical. In outline:
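Kinase in Tris-HCl 40 mM pH 7.5, MgCl2 20 mM, orthovanadate 3 mM, DTT 2 mM, 0.05% CHAPS, 1% DMSO, preincubated 10 min at room temperature with compound (about 0.5 nM–100 μM). ATP started a 30-min reaction at 30 °C. ADP-Glo luminescence converted to μM ADP via standard curve; IC50 from nonlinear regression.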

For experiment [1], the system named is MCF-7 breast adenocarcinoma cells. As to the kind of experiment: Cancer cell proliferation assay, single agent (cell viability). The experiment is classed as cell-based. Particulars: Homo sapiens, MCF7, Table 4; Rb positive; treatment 144 Hr with medium change at 72 Hr; Cell Titer-Glo or resazurin. The essentials: (§1)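 Viability read by resazurin or CellTiter-Glo after 24 h treatment (BT-549) or 144 h with a 72 h medium change (MCF-7, DU4475). Compounds tested at 7–9 concentrations, e.g. 1.1 nM–10 μM, added the day after seeding; IC50 by nonlinear sigmoidal regression.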
In general terms: In ATP-based viability assays light output follows the ATP content of the culture.

Experiment [2] relates to DU4475 breast carcinoma cells. Described as above. The experiment is classed as cell-based. Particulars: Homo sapiens, DU-4475; Table 4; Rb negative; treatment 144 Hr with medium change at 72 Hr; Cell Titer-Glo or resazurin. In outline: as §1
For another experiment, the target named is T4, CDK2 (cyclin A) (Homo sapiens, UniProt P24941).
T4 construct: purchased Invitrogen Life Technologies (assay service)
As to the kind of experiment: Z'-LYTE kinase assay. Type of experiment: biochemical. In outline:
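FRET-based Z′-LYTE read-out using 1.22–10.3 ng CDK2/cyclin A with Ser/Thr 12 peptide (2 μM in the 2× mix) and ATP (31 μM as the 4× solution), in HEPES pH 7.5, MgCl2, EGTA and BRIJ-35, for 60 min at room temperature. After 1 h of development, the 445/520 nm emission was read, and percent inhibition was fitted to a four-parameter logistic curve for IC50.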

The target of the next experiment is T5, CDK1 (cyclin B) (Homo sapiens, UniProt P06493).
T5 construct: purchased Invitrogen Life Technologies (assay service)
T5 sequence (P06493 whole entry): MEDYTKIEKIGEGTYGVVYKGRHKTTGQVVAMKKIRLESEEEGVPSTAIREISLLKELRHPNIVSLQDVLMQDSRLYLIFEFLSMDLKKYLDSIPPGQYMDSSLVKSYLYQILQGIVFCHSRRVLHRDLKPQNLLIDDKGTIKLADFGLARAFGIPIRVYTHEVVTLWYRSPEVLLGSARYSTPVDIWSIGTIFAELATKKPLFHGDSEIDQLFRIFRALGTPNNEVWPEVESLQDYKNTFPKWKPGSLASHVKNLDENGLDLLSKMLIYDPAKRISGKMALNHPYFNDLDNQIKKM
T5 sequence (P14635 whole entry partner): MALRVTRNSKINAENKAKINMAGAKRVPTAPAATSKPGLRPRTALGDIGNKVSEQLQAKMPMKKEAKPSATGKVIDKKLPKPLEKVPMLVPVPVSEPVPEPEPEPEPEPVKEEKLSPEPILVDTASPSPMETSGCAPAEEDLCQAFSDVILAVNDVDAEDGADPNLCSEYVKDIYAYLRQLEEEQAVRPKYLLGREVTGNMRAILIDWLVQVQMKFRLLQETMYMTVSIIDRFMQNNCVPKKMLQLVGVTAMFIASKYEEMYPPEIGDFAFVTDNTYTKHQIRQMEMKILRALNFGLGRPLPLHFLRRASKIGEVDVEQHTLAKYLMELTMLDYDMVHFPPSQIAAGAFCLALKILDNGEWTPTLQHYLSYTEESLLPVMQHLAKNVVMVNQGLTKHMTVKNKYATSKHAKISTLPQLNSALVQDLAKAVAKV
The experiment in a line: Z'-LYTE kinase assay. Type of experiment: biochemical. How it is done:
The plates were shaken for 30 seconds, and incubated for 60 minutes at room temperature. […] The plates were read on fluorescence plate reader with Dual emission at 445 nm and 520 nm.
The following equations were used for Z′-LYTE™ Screening Assay Data Analysis.

Another experiment addresses T6, FMS kinase (Homo sapiens, UniProt P07333).
T6 construct: purchased Invitrogen (Life Technologies)
As to the kind of experiment: LanthaScreen Eu Kinase Binding Assay (ATP, fluorescent-PolyGT substrate). The experiment is classed as biochemical. The essentials: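 TR-FRET read (ex 340, em 495 and 520 nm) after EDTA/Tb-labelled antibody stop; IC50 by four-parameter logistic fit of percent inhibition. Reaction: 1.25 nM FMS, 10 min compound preincubation (3-fold series), then 1 h at room temperature with 10 μM ATP and 200 nM fluorescent PolyGT.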

Counter-ions that a name gives are not always drawn. Like-named read-outs stand apart in the source and are kept apart here. A value given as a limit tells only on which side of the number the result lay.

T2 sequence (P11802 whole entry): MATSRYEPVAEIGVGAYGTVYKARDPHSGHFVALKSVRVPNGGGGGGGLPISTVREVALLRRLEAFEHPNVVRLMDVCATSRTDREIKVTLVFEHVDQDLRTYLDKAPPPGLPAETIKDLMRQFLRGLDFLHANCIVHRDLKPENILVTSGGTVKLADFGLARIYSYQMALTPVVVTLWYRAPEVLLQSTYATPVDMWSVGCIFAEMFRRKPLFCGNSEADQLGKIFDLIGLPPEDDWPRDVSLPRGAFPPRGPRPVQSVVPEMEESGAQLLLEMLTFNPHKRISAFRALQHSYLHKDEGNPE
T2 sequence (P24385 whole entry partner): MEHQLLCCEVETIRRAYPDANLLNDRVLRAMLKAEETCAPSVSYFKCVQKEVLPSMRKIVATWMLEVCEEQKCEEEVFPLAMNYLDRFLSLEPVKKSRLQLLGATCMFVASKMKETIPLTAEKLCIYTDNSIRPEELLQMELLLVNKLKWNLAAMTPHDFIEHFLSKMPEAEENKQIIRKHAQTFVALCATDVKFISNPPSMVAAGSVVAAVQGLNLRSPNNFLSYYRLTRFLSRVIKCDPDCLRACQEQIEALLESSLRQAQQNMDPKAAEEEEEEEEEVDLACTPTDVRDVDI
T1 sequence (Q00534 whole entry): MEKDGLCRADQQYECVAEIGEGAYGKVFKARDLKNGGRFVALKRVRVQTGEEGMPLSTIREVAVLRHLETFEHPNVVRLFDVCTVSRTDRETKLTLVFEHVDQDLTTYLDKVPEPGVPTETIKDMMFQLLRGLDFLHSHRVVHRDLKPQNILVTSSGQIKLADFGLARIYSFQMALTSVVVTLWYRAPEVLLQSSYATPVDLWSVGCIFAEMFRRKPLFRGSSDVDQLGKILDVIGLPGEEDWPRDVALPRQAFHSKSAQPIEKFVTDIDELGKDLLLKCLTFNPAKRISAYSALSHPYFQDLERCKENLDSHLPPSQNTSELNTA
T1 sequence (P24385 whole entry partner): as the sequence (P24385 whole entry partner) above
T6 sequence (P07333 20-972): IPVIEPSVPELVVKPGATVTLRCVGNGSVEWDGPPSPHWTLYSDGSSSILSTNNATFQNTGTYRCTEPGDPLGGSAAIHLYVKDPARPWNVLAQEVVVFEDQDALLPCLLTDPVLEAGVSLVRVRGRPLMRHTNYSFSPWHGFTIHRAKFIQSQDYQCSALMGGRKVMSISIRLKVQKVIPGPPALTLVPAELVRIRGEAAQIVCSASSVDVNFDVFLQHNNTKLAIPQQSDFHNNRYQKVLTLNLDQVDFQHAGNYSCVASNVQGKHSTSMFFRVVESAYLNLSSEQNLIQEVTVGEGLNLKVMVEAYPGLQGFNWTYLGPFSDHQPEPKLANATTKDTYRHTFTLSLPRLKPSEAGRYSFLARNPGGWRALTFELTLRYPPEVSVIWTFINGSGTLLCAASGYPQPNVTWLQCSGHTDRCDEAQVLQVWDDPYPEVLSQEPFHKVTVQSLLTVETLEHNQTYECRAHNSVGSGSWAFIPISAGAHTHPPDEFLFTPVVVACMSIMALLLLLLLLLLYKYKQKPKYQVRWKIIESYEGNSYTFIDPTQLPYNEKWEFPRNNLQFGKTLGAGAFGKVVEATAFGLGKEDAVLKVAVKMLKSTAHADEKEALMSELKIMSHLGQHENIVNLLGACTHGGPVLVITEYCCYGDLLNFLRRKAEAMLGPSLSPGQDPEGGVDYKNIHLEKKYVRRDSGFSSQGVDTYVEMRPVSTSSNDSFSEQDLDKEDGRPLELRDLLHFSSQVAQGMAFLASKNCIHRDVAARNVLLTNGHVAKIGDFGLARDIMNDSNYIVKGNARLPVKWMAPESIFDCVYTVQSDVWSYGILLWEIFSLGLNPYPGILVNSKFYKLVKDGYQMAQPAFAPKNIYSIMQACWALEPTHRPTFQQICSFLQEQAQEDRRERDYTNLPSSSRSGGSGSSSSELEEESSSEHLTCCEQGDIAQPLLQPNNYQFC

For `N#Cc1cc2cnc(Nc3ccc4c(c3)CNCC4)cc2n(C2CCCC2)c1=O` [Compound No. 95, 1-cyclopentyl-2-oxo-7-((1,2,3,4-tetrahydroisoquinolin-7-yl)amino)-1,2-dihydro-1,6-naphthyridine-3-carbonitrile], the IC50 at CDK6 is above 0.184 µM; at CDK4, above 0.2 µM; against PI3Kδ kinase, 4.7 µM; in experiment [1], 3.58 µM; in experiment [2], 1.51 µM; on CDK2 (cyclin A), 2.04 µM. Besides, at CDK1 (cyclin B) (read-out: CDK1/B IC50), the IC50 was above 5 µM.
As for `CN1CCC(c2ccc(Nc3cc4c(cn3)cc(C#N)c(=O)n4C3CCCC3)cc2)CC1` [Compound No. 89, 1-cyclopentyl-7-((4-(1-methylpiperidin-4-yl)phenyl)amino)-2-oxo-1,2-dihydro-1,6-naphthyridine-3-carbonitrile], the IC50 was 0.01 µM at CDK6; 0.02 µM on CDK4; 0.751 µM against PI3Kδ kinase; 5.21 µM in experiment [2]; 0.874 µM at CDK2 (cyclin A); above 5 µM at CDK1 (cyclin B) (read-out: CDK1/B IC50).
As for `N#Cc1cc2ccc(Nc3ccc(N4CCNCC4)cc3)nc2n(C2CCCC2)c1=O` [Compound No. 94, 1-cyclopentyl-2-oxo-7-((4-(piperazin-1-yl)phenyl)amino)-1,2-dihydro-1,8-naphthyridine-3-carbonitrile], the IC50 at CDK6 was above 0.2 µM; at CDK4, above 0.2 µM; at PI3Kδ kinase, above 50 µM; in experiment [1], 1.95 µM; in experiment [2] it was 0.485 µM; against CDK2 (cyclin A), above 5 µM. For the same molecule, on CDK1 (cyclin B) (read-out: CDK1/B IC50), the IC50 was above 5 µM.
Take `N#Cc1cc2cnc(Nc3ccc4c(c3)CCNC4)nc2n(C2CCC2)c1=O` [Compound No. 91, 8-cyclobutyl-7-oxo-2-((1,2,3,4-tetrahydroisoquinolin-6-yl)amino)-7,8-dihydropyrido[2,3-d]pyrimidine-6-carbonitrile hydrochloride]: the IC50 was found to be 0.028 µM at CDK6; 0.084 µM at CDK4; 0.705 µM at PI3Kδ kinase; 0.51 µM in experiment [2]; 0.079 µM at CDK2 (cyclin A); 0.913 µM on CDK1 (cyclin B) (read-out: CDK1/B IC50).
In the case of `CC1(C)NCCc2cc(Nc3ncc4cc(C#N)c(=O)n(C5CCCC5)c4n3)ccc21` [Compound No. 92, 8-cyclopentyl-2-((1,1-dimethyl-1,2,3,4-tetrahydroisoquinolin-6-yl)amino)-7-oxo-7,8-dihydropyrido[2,3-d]pyrimidine-6-carbonitrile], the IC50 worked out at 0.006 µM on CDK6; 0.015 µM on CDK4; 0.725 µM against PI3Kδ kinase; 0.42 µM in experiment [2]; 0.016 µM against CDK2 (cyclin A); 0.118 µM on CDK1 (cyclin B) (read-out: CDK1/B IC50).
Consider `CS(=O)(=O)N1CC[C@H](Nc2ncc3cc(C#N)c(=O)n(C4CCCC4)c3n2)[C@H](F)C1` [Compound No. 363, 8-cyclopentyl-2-((3R,4S)-3-fluoro-1-(methylsulfonyl)piperidin-4-ylamino)-7-oxo-7,8-dihydropyrido[2,3-d]pyrimidine-6-carbonitrile], for which the IC50 at CDK6 came out at 0.012 µM; at CDK4, 0.0017 µM; at FMS kinase, 0.138 µM; in experiment [1] it was 0.265 µM; in experiment [2], 1.66 µM; against CDK2 (cyclin A) it was 0.017 µM. At CDK1 (cyclin B), this molecule yielded an IC50 of 0.233 µM.
Take `CN1CCN(c2ccc(Nc3cc4c(cn3)cc(C#N)c(=O)n4C3CCCC3)cc2)CC1` [Compound No. 87, 1-cyclopentyl-7-((4-(4-methylpiperazin-1-yl)phenyl)amino)-2-oxo-1,2-dihydro-1,6-naphthyridine-3-carbonitrile]: the IC50 is 0.021 µM on CDK6; 0.058 µM on CDK4; 0.549 µM against PI3Kδ kinase; 6.71 µM in experiment [2]; above 3.64 µM against CDK2 (cyclin A); above 5 µM on CDK1 (cyclin B) (read-out: CDK1/B IC50).
Regarding `CS(=O)(=O)N1CCC(Nc2ncc3cc(C#N)c(=O)n(CC4CCCCC4)c3n2)CC1` [Compound No. 348, 8-(cyclohexylmethyl)-2-((1-(methylsulfonyl)piperidin-4-yl)amino)-7-oxo-7,8-dihydropyrido[2,3-d]pyrimidine-6-carbonitrile], the IC50 came to 0.055 µM on CDK6; 0.062 µM at CDK4; 0.031 µM on FMS kinase; 0.725 µM in experiment [1]; 6.84 µM in experiment [2]; 0.219 µM on CDK2 (cyclin A). Moreover, the IC50 on CDK1 (cyclin B) was found to be 1.38 µM.
On to `N#Cc1cc2cnc(NC3CCN(S(=O)(=O)C(F)F)CC3)nc2n(C2CCCC2)c1=O` [Compound No. 359, 8-cyclopentyl-2-((1-((difluoromethyl)sulfonyl)piperidin-4-yl)amino)-7-oxo-7,8-dihydropyrido[2,3-d]pyrimidine-6-carbonitrile], for which the IC50 at CDK6 was 0.012 µM; on CDK4, 0.0014 µM; at FMS kinase, above 5 µM; in experiment [1] it was 0.33 µM; in experiment [2], 3.25 µM; at CDK2 (cyclin A) it was 1.87 µM. Moreover, on CDK1 (cyclin B) (read-out: CDK1/B IC50), the IC50 was above 5 µM.
Take `N#Cc1cc2ccc(Nc3ccc4c(c3)CNCC4)nc2n(C2CCCC2)c1=O` [Compound No. 326, 1-cyclopentyl-2-oxo-7-((1,2,3,4-tetrahydroisoquinolin-7-yl)amino)-1,2-dihydro-1,8-naphthyridine-3-carbonitrile]: the IC50 on CDK6 was above 0.2 µM; at CDK4 it was above 0.2 µM; against PI3Kδ kinase it was above 50 µM; in experiment [1], 3.52 µM; in experiment [2], 4.24 µM; against CDK2 (cyclin A) it was above 5 µM. Further, the IC50 on CDK1 (cyclin B) (read-out: CDK1/B IC50) is above 5 µM.
As to `N#Cc1cc2cnc(Nc3ccc(N4CCNCC4)cc3)cc2n(C2CCCC2)c1=O` [Compound No. 88, 1-cyclopentyl-2-oxo-7-((4-(piperazin-4-yl)phenyl)amino)-1,2-dihydro-1,6-naphthyridine-3-carbonitrile], the IC50 at CDK6 is 0.012 µM; at CDK4 it was 0.034 µM; at PI3Kδ kinase, 0.905 µM; in experiment [2], 1.56 µM; against CDK2 (cyclin A) it was 1.1 µM; on CDK1 (cyclin B) (read-out: CDK1/B IC50), above 5 µM.
For the molecule `N#Cc1cc2cnc(NC3CCN(S(=O)(=O)c4ccc(F)cc4)CC3)nc2n(C2CCCC2)c1=O` [Compound No. 361, 8-cyclopentyl-2-((1-((4-fluorophenyl)sulfonyl)piperidin-4-yl)amino)-7-oxo-7,8-dihydropyrido[2,3-d]pyrimidine-6-carbonitrile], the IC50 was 0.0071 µM at CDK6; 0.0013 µM on CDK4; 0.539 µM on FMS kinase; 0.31 µM in experiment [1]; 1.04 µM in experiment [2]; below 0.001 µM against CDK2 (cyclin A). This molecule displayed an IC50 against CDK1 (cyclin B) of 0.157 µM.
For the molecule `N#Cc1cc2cnc(Nc3ccc4c(c3)CCNC4)cc2n(C2CCCC2)c1=O` [Compound No. 90, 1-cyclopentyl-2-oxo-7-((1,2,3,4-tetrahydroisoquinolin-6-yl)amino)-1,2-dihydro-1,6-naphthyridine-3-carbonitrile], the IC50 is 0.115 µM on CDK6; 0.132 µM at CDK4; 4.94 µM against PI3Kδ kinase; 4.9 µM in experiment [2]; 0.619 µM against CDK2 (cyclin A); above 5 µM on CDK1 (cyclin B) (read-out: CDK1/B IC50).
